Experimental data from patent publication US8304422B2, “Compositions and methods for inhibition of the JAK pathway” (Rigel Pharmaceuticals, Inc., priority 2007, dated 2012).

What follows are compounds tested on BaF3 V617F cells; UKE-1 (assay: Proliferation Assay (Cell Titer-Glo; Example 7)). Settings: proliferation 72 hours, inhibit JAK2 activity, cell line (BaF3 V617F or UKE-1) not stated.
Assay type: cell-based
Method in brief: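 Proliferation IC50s reflect 72 h compound exposure at 37 °C, read by Cell Titer-Glo luminescence. Compound was serially diluted 3-fold from a 5 mM DMSO stock and added as a 2× solution; BaF3 V617F cells were grown in RPMI/10% FBS, UKE-1 in Iscove's DMEM with FBS, equine serum and hydrocortisone.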

Row | IC50 [nM] | Compound
1 | 73.7 | CCNS(=O)(=O)NCc1ccc(Nc2nc(Nc3cc(C)c(OC)c(C)c3)ncc2C)cc1 [II-116, N2-(3,5-Dimethyl-4-methoxyphenyl)-N4-[(4-(ethylamino)sulfonylamino)methylphenyl]-5-methyl-2,4-pyrimidinediamine]
2 | 267 | CCNS(=O)(=O)NCc1cccc(Nc2nc(Nc3ccc(N4CCN(C)CC4)cc3)ncc2C)c1 [II-135, N4-[(3-(Ethylamino)sulfonylamino)methylphenyl]-5-methyl-N2-[4-(4-methyl-1-piperazinyl)phenyl]-2,4-pyrimidinediamine]
3 | 1490 | CCN1CCN(c2ccc(Nc3ncc(C)c(Nc4ccc(CCNS(=O)(=O)C5CC5)cc4)n3)c(C(F)(F)F)c2)CC1 [II-74]
4 | 63.6 | CCOc1c(C)cc(Nc2ncc(C)c(Nc3ccc(CNS(=O)(=O)NC4CC4)cc3)n2)cc1C [II-163, N4-[4-((N-Cyclopropylamino)sulfonylamino)methylphenyl]-N2-(3,5-dimethyl-4-ethoxyphenyl)-5-methyl-2,4-pyrimidinediamine]
5 | 194 | COc1c(C)cc(Nc2ncc(C)c(Nc3ccc(CNS(=O)(=O)N(C)C)cc3)n2)cc1Cl [II-101, 5-Methyl-N2-(3-chloro-4-methoxy-5-methylphenyl)-N4-[(4-(dimethylamino)sulfonylamino)methylphenyl]-2,4-pyrimidinediamine]
6 | 1640 | COc1cc(Nc2ncc(C)c(Nc3ccc4c(c3)C(NS(=O)(=O)C3CC3)CC4)n2)cc(OC)c1OC (racemic) [V-3]
7 | 716 | CCS(=O)(=O)N1CCc2cc(Nc3nc(Nc4cc(C)c(OC)c(C)c4)ncc3F)ccc2C1 [VIII-10, N4-[(N-ethylsulfonyl)-1,2,3,4-tetrahydroisoquinolin-6-yl]-N2-(3,5-dimethyl-4-methoxy)phenyl-5-fluoro-2,4-pyrimidinediamine]
8 | 848 | Cc1cnc(Nc2cncc(C)c2N2CCN(C)CC2)nc1Nc1ccc(CNS(=O)(=O)C2CC2)cc1 [II-224, 5-Methyl-N4-[4-(N-cyclopropylsulfonylamino)methylphenyl]-N2-[5-methyl-4-(N-methylpiperizin-4-yl)pyridin-3-yl]-2,4-pyrimidinediamine]
9 | 485 | CCNS(=O)(=O)NCc1ccc(Nc2nc(Nc3cc(C)c(OC)c(C)c3)ncc2Cl)c(C)c1 [II-142, 5-Chloro-N2-(3,5-dimethyl-4-methoxyphenyl)-N4-[2-methyl-4-(ethylaminosulfonylamino)methylphenyl]-2,4-pyrimidinediamine]
10 | 317 | CCOc1cc(Nc2ncc(C)c(Nc3ccc(CNS(=O)(=O)C4CC4)cc3)n2)cc(OC)c1OC [II-209, 5-Methyl-N4-[4-(N-cyclopropylsulfonylamino)methylphenyl]-N2-[3,4-dimethoxy-5-ethoxyphenyl]-2,4-pyrimidinediamine]
11 | 252 | CCNS(=O)(=O)NCc1ccc(Nc2nc(Nc3cc(C)c(OCC)c(C)c3)ncc2Cl)c(C)c1 [II-143, 5-Chloro-N2-(3,5-dimethyl-4-ethoxyphenyl)-N4-[2-methyl-4-(ethylaminosulfonylamino)methylphenyl]-2,4-pyrimidinediamine]
12 | 383 | Cc1cnc(Nc2ccc(C3CCN(C)CC3)cc2)nc1Nc1ccc(CNS(=O)(=O)N(C)C)cc1 [II-106, N4-[(4-(Dimethylamino)sulfonylamino)methylphenyl]-5-methyl-N2-[4-(1-methyl-4-piperidinyl)pheny]-2,4-pyrimidinediamine]
13 | 2200 | COc1cc(Nc2ncc(C)c(Nc3ccc4c(c3)[C@H](NS(C)(=O)=O)CC4)n2)cc(OC)c1OC [V-9]
14 | 151 | CCNS(=O)(=O)NCc1cccc(Nc2nc(Nc3ccc(N4CCN(C)CC4)cc3)ncc2Cl)c1 [II-131, 5-Chloro-N4-[(3-(ethylamino)sulfonylamino)methylphenyl]-N2-[4-(4-methyl-1-piperazinyl)phenyl]-2,4-pyrimidinediamine]
15 | 1360 | CCNS(=O)(=O)NCc1ccc(Nc2nc(Nc3cc(Cl)c(OC)c(Cl)c3)ncc2C)cc1 [II-119, N2-[3,5-Dichloro-4-methoxyphenyl]-N4-[(4-(ethylamino)sulfonylamino)methylphenyl]-5-methyl-2,4-pyrimidinediamine]
16 | 1970 | CCCN1CCN(c2ccc(Nc3ncc(Cl)c(Nc4ccc(CCNS(=O)(=O)C5CC5)cc4)n3)c(C(F)(F)F)c2)CC1 [II-54, 5-Chloro-N4[4-(N-cyclopropylsulfonylamino)ethylphenyl]-N2-[4-(4-propylpiperazino)-2-trifluoromethylphenyl]-2,4-pyrimidinediamine]

Row | IC50 [nM] | Compound
17 | 138 | CCCOc1c(C)cc(Nc2ncc(Cl)c(Nc3ccc(CNS(=O)(=O)NC4CC4)cc3)n2)cc1C [II-157, 5-Chloro-N4-[4-((N-cyclopropylamino)sulfonylamino)methylphenyl]-N2-(3,5-dimethyl-4-propoxyphenyl)-2,4-pyrimidinediamine]
18 | 1560 | Cc1cnc(Nc2ccc(N3CCN(S(C)(=O)=O)CC3)cc2)nc1Nc1ccc(CNS(=O)(=O)C2CC2)cc1 [II-206]
19 | 2260 | Cc1cc(Nc2ncc(C)c(Nc3ccc(CNS(=O)(=O)NC4CC4)cc3)n2)ccc1N1CCN(C)CC1 [II-172, N4-[4-((N-Cyclopropylamino)sulfonylamino)methylphenyl]-5-methyl-N2-[3-methyl-4-(4-methyl-1-piperazinyl)phenyl]-2,4-pyrimidinediamine]
20 | 592 | COc1cc(C)c(Nc2ncc(Cl)c(Nc3ccc(CCNS(=O)(=O)C4CC4)cc3)n2)c(C)c1 [II-46, 5-Chloro-N4[4-(N-cyclopropylsulfonylamino)ethylphenyl]-N2-[4-(2,6-dimethyl-methoxy)phenyl]-2,4-pyrimidinediamine]
21 | 1310 | Cc1cc(CNS(=O)(=O)C2CC2)cc(Nc2nc(Nc3ccc(N4CCN(C5CC6CCC5C6)CC4)cc3)ncc2Cl)c1 (centres unmarked) [II-76, N-(3-(2-(4-(4-(bicyclo[2.2.1]heptan-2-yl)piperazin-1-yl)phenylamino)-5-chloropyrimidin-4-ylamino)-5-methylbenzyl)cyclopropanesulfonamide]
22 | 293 | CN1CCC(c2ccc(Nc3ncc(Cl)c(Nc4ccc(CNS(=O)(=O)C5CC5)cc4)n3)cc2)CC1 [II-187, 5-Chloro-N4-[4-(N-cyclopropylsulfonylaminomethyl)phenyl]-N2-[4-(N-methylpiperidin-4-yl)phenyl]-2,4-pyrimidinediamine]
23 | 726 | CCNS(=O)(=O)NCc1cccc(Nc2nc(Nc3ccc(N4CCN(C)CC4)cc3)ncc2F)c1 [II-138, N4-[3-((Ethylamino)sulfonylamino)methylphenyl]-5-fluoro-N2-[4-(4-methyl-1-piperazinyl)phenyl]-2,4-pyrimidinediamine]
24 | 541 | CCNS(=O)(=O)NCc1cccc(Nc2nc(Nc3cc(C)c(OC)c(C)c3)ncc2F)c1 [II-137, N2-(3,5-Dimethyl-4-methoxyphenyl)-N4-[(3-(ethylamino)sulfonylamino)methylphenyl]-5-fluoro-2,4-pyrimidinediamine]
25 | 38300 | CCc1cnc(Nc2cc(Cl)c(OC)c(Cl)c2)nc1Nc1ccc(CNS(=O)(=O)C2CC2)cc1 [II-84, N4-[4-(N-Cyclopropylsulfonylamino)methylphenyl]-N2-(3,5-dichloro-4-methoxyphenyl)-5-ethyl-2,4-pyrimidinediamine]
26 | 1980 | CN1CCN(c2ccc(Nc3ncc(Cl)c(Nc4ccc(CCNS(=O)(=O)C5CC5)cc4)n3)cn2)CC1 [II-53, 5-Chloro-N4[4-(N-cyclopropylsulfonylamino)ethylphenyl]-N2-[4-(4-methylpiperazino)pyrido]-2,4-pyrimidinediamine]
27 | 13200 | 5-Chloro-N4-[3,4-dihydro-1,1-dioxide-2H-1,2-benzothiazin-7-yl]-N2-[4-(N-methylpiperizin-4-yl)phenyl]-2,4-pyrimidinediamine [VII-5]
28 | 1700 | CCN1CCN(c2ccc(Nc3ncc(Cl)c(Nc4ccc(CCNS(=O)(=O)C5CC5)cc4)n3)c(C(F)(F)F)c2)CC1 [II-57, 5-Chloro-N4[4-(N-cyclopropylsulfonylamino)ethylphenyl]-N2-[4-(4-ethylpiperazino)-2-trifluoromethylphenyl]-2,4-pyrimidinediamine]
29 | 3030 | COc1c(Cl)cc(Nc2ncc(C)c(Nc3ccc4c(c3)C(NS(=O)(=O)C3CC3)CC4)n2)cc1Cl (racemic) [V-8, (+/−)-N4-[1-(Cyclopropylsulfonylamino)indan-6-yl]-N2-(3,5-dichloro-4-methoxyphenyl)-5-methyl-2,4-pyrimidinediamine]
30 | 231 | CCNS(=O)(=O)NCc1cccc(Nc2nc(Nc3cc(C)c(OCC)c(C)c3)ncc2C)c1 [II-134, N2-(3,5-Dimethyl-4-ethoxyphenyl)-N4-[(3-(ethylamino)sulfonylamino)methylphenyl]-5-methyl-2,4-pyrimidinediamine]
31 | 467 | N4-[4-(N-cyclopropylsulfonylamino)ethylphenyl)]-5-methyl-N2-[4-(6-methoxy-2-methyl)methoxyphenyl]-2,4-pyrimidinediamine [II-66]

Row | Compound | IC50 [nM]
32 | 5-Methyl-N4-[4-(N-cyclopropylsulfonylamino)methylphenyl]-N2-[2,4-dimethyl-5-chlorophenyl]-2,4-pyrimidinediamine [II-212] | 2200
33 | 5-Bromo-N4-[3-(N-tert-butylsulfonyl)phenyl]-N2-[4-(4-methylpiperazine)-phenyl]-2,4-pyrimidinediamine [I-18] | 832
34 | CN1CCN(c2ccncc2Nc2ncc(Cl)c(Nc3ccc(CNS(=O)(=O)C4CC4)cc3)n2)CC1 [II-216, 5-Chloro-N4-[4-(N-cyclopropylsulfonylamino)methylphenyl]-N2-[4-(N-methylpiperizin-4-yl)pyridine-3-yl]-2,4-pyrimidinediamine] | 246
35 | CN1CCN(c2ccc(Nc3nccc(Nc4cccc(S(=O)(=O)NC(C)(C)C)c4)n3)cc2)CC1 [I-19, N4-[3-(N-tert-butylsulfonyl)phenyl]-N2-[4-(4-methylpiperazine)-phenyl]-2,4-pyrimidinediamine] | 603
